The target in this experiment is T1, telomerase in nuclear extracts from HeLa cells (Homo sapiens, UniProt O14746).
T1 construct: The activity of telomerase in nuclear extracts from HeLa cells; endogenous in cells; host or cells: HeLa-S3 (ATCC CCL-2.2) nuclear extract
T1 sequence (O14746 whole entry): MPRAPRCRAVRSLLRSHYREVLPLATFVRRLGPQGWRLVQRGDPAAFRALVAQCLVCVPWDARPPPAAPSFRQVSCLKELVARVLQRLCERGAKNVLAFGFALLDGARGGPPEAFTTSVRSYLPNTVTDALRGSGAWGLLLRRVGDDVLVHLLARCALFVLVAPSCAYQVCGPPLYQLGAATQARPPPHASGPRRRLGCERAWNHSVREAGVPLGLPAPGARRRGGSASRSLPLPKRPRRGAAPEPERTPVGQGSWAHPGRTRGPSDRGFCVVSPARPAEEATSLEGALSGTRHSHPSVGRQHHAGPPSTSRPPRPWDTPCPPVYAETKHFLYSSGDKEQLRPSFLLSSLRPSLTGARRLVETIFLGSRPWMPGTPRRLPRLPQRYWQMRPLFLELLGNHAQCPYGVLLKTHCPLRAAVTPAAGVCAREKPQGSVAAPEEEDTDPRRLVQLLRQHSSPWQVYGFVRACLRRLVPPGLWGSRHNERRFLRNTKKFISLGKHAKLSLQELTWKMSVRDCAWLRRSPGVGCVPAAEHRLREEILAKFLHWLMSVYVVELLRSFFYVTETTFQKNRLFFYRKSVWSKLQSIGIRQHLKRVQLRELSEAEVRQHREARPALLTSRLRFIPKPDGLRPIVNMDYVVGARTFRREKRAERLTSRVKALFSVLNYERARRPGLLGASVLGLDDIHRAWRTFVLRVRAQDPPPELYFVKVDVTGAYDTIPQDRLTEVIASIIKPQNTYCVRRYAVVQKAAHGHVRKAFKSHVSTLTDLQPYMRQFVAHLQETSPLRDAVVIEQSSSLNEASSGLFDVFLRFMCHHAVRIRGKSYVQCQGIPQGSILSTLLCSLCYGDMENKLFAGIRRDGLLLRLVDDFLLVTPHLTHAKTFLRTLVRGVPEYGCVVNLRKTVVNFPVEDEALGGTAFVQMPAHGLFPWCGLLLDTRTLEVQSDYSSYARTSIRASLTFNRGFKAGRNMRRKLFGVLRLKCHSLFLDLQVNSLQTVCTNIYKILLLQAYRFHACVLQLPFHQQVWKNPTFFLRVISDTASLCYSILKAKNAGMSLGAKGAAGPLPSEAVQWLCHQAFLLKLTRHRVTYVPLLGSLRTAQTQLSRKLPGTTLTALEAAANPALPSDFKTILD
T1 sequence (O60832 whole entry partner): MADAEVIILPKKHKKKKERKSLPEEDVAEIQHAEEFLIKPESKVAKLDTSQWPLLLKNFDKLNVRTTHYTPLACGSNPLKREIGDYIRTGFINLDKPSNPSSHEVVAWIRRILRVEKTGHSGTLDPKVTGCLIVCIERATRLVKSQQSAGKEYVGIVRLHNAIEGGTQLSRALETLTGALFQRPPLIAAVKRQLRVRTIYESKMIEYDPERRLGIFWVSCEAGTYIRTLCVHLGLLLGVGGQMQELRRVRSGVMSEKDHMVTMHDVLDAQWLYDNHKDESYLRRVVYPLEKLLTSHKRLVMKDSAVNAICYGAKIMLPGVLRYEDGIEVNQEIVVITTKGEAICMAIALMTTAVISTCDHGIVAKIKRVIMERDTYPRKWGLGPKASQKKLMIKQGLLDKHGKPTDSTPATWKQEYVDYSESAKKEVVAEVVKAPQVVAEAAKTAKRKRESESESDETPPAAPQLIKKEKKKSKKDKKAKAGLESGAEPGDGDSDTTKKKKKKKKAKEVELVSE
T1 sequence (Q9NX24 whole entry partner): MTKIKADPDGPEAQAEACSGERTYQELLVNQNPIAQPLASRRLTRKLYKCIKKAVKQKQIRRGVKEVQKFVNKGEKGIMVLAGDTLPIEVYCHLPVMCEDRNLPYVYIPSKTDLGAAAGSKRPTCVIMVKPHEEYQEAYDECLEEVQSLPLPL
T1 sequence (Q9NPE3 whole entry partner): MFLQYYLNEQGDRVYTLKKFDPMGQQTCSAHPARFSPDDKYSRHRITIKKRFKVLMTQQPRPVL
T1 sequence (Q9NY12 whole entry partner): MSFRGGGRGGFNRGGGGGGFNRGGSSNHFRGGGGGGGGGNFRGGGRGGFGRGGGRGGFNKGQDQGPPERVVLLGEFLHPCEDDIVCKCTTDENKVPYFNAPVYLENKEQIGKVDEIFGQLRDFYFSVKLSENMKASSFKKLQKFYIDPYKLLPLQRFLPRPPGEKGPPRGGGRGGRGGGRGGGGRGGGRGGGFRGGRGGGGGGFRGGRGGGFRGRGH
T1 sequence (Q9BUR4 whole entry partner): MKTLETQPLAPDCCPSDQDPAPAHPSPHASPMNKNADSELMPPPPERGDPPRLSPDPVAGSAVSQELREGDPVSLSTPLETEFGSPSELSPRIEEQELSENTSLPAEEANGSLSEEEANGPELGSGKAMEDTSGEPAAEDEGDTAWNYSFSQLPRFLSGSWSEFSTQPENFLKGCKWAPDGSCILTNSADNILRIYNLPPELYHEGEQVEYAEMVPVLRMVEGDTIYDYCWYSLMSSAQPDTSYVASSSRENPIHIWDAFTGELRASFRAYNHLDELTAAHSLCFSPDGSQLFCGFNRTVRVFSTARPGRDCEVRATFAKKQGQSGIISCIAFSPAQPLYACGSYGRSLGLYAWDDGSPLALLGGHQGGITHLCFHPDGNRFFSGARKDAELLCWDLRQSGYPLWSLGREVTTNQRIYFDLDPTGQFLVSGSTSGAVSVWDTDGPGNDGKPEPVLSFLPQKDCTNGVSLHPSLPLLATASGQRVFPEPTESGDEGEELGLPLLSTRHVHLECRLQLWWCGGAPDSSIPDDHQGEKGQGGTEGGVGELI
Nature of the experiment: Telomerase test in nuclear extracts from HeLa cells (method of Morin). The class given is biochemical. Particulars: HeLa nuclear extract, 120 minutes at 30° C., inhibitor 1 nM to 100 μM, 32P-dGTP incorporation quantified by Phospho-Imager. How it is done:
1. Preparation of nuclear extracts from HeLa cells: Nuclear extracts were prepared according to Dignam (Dignam et al. in Nucleic Acids Res. 11, 1475-1489 (1983)). All the steps were carried out at 4° C., all the equipment and solutions were pre-cooled to 4° C. At least 1×10^9 HeLa-S3 cells growing in suspension culture (ATCC catalogue number CCL-2.2) were harvested by centrifuging for 5 minutes at 1000×g and washed once with PBS buffer ([…]; 2.7 mM KCl; 8.1 mM Na2HPO4; 1.5 mM KH2PO4) . After the cell volume had been determined, the cells were suspended in 5 times the volume of hypotonic buffer (10 mM HEPES/KOH, pH 7.8; 10 mM KCl; 1.5 mM MgCl2) and then left for 10 minutes at 4° C. After centrifuging for 5 minutes at 1000×g the cell pellet was suspended in twice the volume of hypotonic buffer in the presence of 1 mM DTE and 1 mM PMSF and broken up with a Dounce homogeniser. The homogenised material was made isotonic with 0.1 volume of 10-fold saline buffer (300 mM HEPES/KOH, pH 7.8; 1.4 M KCl; 30 mM MgCl2). The cell nuclei were separated from the ingredients of the cytoplasm by centrifuging and then suspended in twice the volume of nuclear extraction buffer (20 mM HEPES/KOH, pH 7.9; 420 mM KCl; 1.5 mM MgCl2; 0.2 mM EDTA; 0.5 mM DTE; 25% glycerol). The nuclei were broken up using a Dounce homogeniser and incubated for 30 minutes at 4° C. with gentle stirring. Any insoluble ingredients were removed by centrifuging for 30 minutes at 10.000 rpm (SS-34 Rotor). Then the nuclear extract was dialysed for 4-5 hours against AM-100 buffer (20 mM tris/HCl, pH 7.9; 100 mM KCl; 0.1 mM EDTA; 0.5 mM DTE; 20% glycerol). The nuclear extracts obtained were frozen in liquid nitrogen and stored at −80° C.
2. Telomerase test: The activity of telomerase in nuclear extracts from HeLa cells was determined using the method described by Morin (Morin in Cell 59. 521-529 (1989)). […] If the inhibition constant of potential telomerase inhibitors was to be determined, these were also added to the telomerase reaction in a concentration range of from 1 nM to 100 μM. […]
As a reminder, the IC50 is the concentration needed to halve the response being measured. Higher therefore signals weaker potency. As for `O=C(O)c1ccccc1C(=O)Nc1nc(-c2ccc3ccccc3c2)cs1` [Example 3, 2-[4-(naphthalin-2-yl)-thiazol-2-ylaminocarbonyl]-benzoic acid], the IC50 was less than 5 µM.

For `O=C(O)c1ccccc1Nc1nccc(-c2ccc3ccccc3c2)n1` [Example 50, 2-[4-(naphthalin-2-yl)-pyrimidin-2-ylamino]-benzoic acid], the IC50 is less than 1 µM.

`O=C(O)C1=C(C(=O)Nc2nc(-c3ccc4ccccc4c3)cs2)CCC1` [Example 35, 2-[4-(naphthalin-2-yl)-thiazol-2-ylaminocarbonyl]-cyclopent-1-ene-carboxylic acid] showed an IC50 of less than 1 µM.

(Values after patent publication US20030055263A1, “Carboxylic acid derivatives, medicaments comprising these compounds, their use and processes for their production” (Boehringer Ingelheim Pharma KG, priority 2001, published 2003).)
